From EPA's ToxValDB 9.5 come the findings set out here.

In data set [1] the test system is Rattus norvegicus. The following applies: M/F.
The subject of data set [2] is Mus musculus. The following applies: hepatic; for LOAEL: chronic, duration: 6 months, inhalation, F.
Data set [3] has as its system Rattus norvegicus. The following applies: oral.
Data set [4] relates to Rattus norvegicus. Particulars: oral. This is another data set of the same source.
Data set [5] relates to Mus musculus. Particulars: reproduction developmental; oral; drinking water; F; Nod/Shilt; generation: F1; F1: Endocrine: Blood: Glucose (GLU) + F1: Endocrine: Multiple Organs: Diabetes + F1: Endocrine: Pancreas: Insulitis.
In data set [6] the test system is Rattus norvegicus. The following applies: oral, gavage, Crl:CD(SD).
Setting [7] is: chronic, duration: 2 years, inhalation, no effects.
Where [8] appears, read: subchronic, oral, myocardial degeneration, hepatotoxicity and nephrotoxicity.
[9] abbreviates: short-term, inhalation, degeneration of olfactory epithelium.
Where [10] appears, read: subchronic, oral, gavage, hepatic lesions.
[11] abbreviates: reproduction developmental, oral, drinking water, neurodevelopmental effects.
Setting [12] is: chronic, duration: 2 years, oral, diet, reduced body weight.
Setting [13] is: developmental, inhalation, reduced pup weight in the f1 and f2 generations.
[14] abbreviates: chronic, duration: 2 years, oral, diet, decreased body weight gain increased plantar ulcer (females).
The mark [15] stands for this setting: reproduction developmental, oral, reduced fertility in the F1/F2b generation + Reduced relative kidney weights in F0, F1, and F2b adults.
Setting [16] is: developmental, F, generation: F1, F1: Developmental: Whole Body: Pup Weight Relative to Litter (PND 0) + F1: Developmental: Whole Body: Pup Weight Relative to Litter (PND 4).
[17] abbreviates: developmental, M/F, generation: F1, F1: Developmental: Whole Body: Live Birth Index + F1: Developmental: Whole Body: Live Pups Born + F1: Developmental: Whole Body: No. Live ….
Where [18] appears, read: developmental, M, generation: F1, F1: Developmental: Whole Body: Pup Weight Relative to Litter (PND 0) + F1: Developmental: Whole Body: Pup Weight Relative to Litter (PND 4).
Where [19] appears, read: reproduction developmental, duration: 42 days, M, generation: P0, P0: Blood: Albumin/Globulin (A/G) Ratio + P0: Liver: Cholesterol (CHOL), Total, Blood + P0: Liver: Hepatocellular Hypertrophy + P0: Liver: ….
Setting [20] is: reproduction developmental, duration: 46 days, F, generation: F1, F1: Whole Body: Pup Weight Relative to Litter (PND 0) + F1: Whole Body: Pup Weight Relative to Litter (PND 4).
Setting [21] is: reproduction developmental, duration: 46 days, F, generation: P0, P0: Liver: Cholesterol (CHOL), Total, Blood + P0: Liver: Phospholipid.
The mark [22] stands for this setting: reproduction developmental, duration: 46 days, M, generation: F1, F1: Whole Body: Pup Weight Relative to Litter (PND 0) + F1: Whole Body: Pup Weight Relative to Litter (PND 4).
[23] abbreviates: reproduction developmental, F, generation: P0, P0: Developmental: Uterus: Implantation + P0: Developmental: Uterus: Implantation Index + P0: Hepatic: Blood: Albumin/Globulin (A/G) Ratio….
The mark [24] stands for this setting: reproduction developmental, F, generation: P0, P0: General Toxicity: Whole Body: Clinical Observations + P0: General Toxicity: Whole Body: Maternal Body Weight Change + P0: Other Systems….
Setting [25] is: reproduction developmental, M, generation: P0, P0: General Toxicity: Whole Body: Body Weight Change + P0: General Toxicity: Whole Body: Clinical Observations + P0: Other Systems: Bone: ….
[26] abbreviates: reproduction developmental, M, generation: P0, P0: Hepatic: Blood: Albumin/Globulin (A/G) Ratio + P0: Hepatic: Liver: Alanine Aminotransferase (ALT) + P0: Hepatic: Liver: Albumin (A) + P0….
The mark [27] stands for this setting: developmental, duration: 46 days, gavage, F, Developmental: Decreased body weight in pups on PNDs 0 and 4 (13-19% in males and 12-16% in females).
[28] abbreviates: subchronic, duration: 46 days, gavage, M/F, Body Weight: Decreased body weight (~10%) in males during exposure and recovery and in satellite females during dosing (~23% on day 40) and ….
Where [29] appears, read: subchronic, oral, renal and hepatotoxicity.

Structures are written as SMILES. Where “and” joins values, the source holds several entries; their conditions need not be identical. Equal entries are not always repeated.

In general, NOAEL refers to the highest tested level that showed no adverse finding. In the case of `CC(F)F` [1,1-Difluoroethane], the no-observed-adverse-effect level (NOAEL) with Rattus norvegicus [1] (setting [7]) is 67500 mg/m3.
By LOAEL is commonly meant the lowest tested level that showed an adverse finding. The molecule `CN(C)N` [1,1-Dimethylhydrazine] showed an LOAEL in the data set with Mus musculus [2] (C57BL/6) of 0.123 mg/m3.
In turn, `CC(F)(F)Cl` [1-Chloro-1,1-difluoroethane] showed a no observed adverse effect level (NOAEL) in the data set with Rattus norvegicus [1] (setting [7]) of 82600 mg/m3.
Regarding `OCC(Cl)CCl` (centres undefined) [2,3-Dichloro-1-propanol], in the data set with Rattus norvegicus [1] (setting [8]), the LOAEL stood at 35 mg/kg-day and the NOAEL is 10 mg/kg-day.
Consider `CC=O` [Acetaldehyde], for which the no-observed-adverse-effect level (NOAEL) with Rattus norvegicus [3] (short-term, duration: 28 days, drinking water, M/F, Wistar, Food Consumption: decrease + Water Consumption: decrease + Blood Chemistry: BUN increase, T-Bil decrease, ALT decrease, ALP decrease + …) amounted to 125 mg/kg-day. In the data set with Rattus norvegicus [1] (setting [9]), this molecule showed an LOAEL of 728 mg/m3 and an NOAEL of 273 mg/m3.
In the case of `BrC(Br)Br` [Bromoform], the NOAEL in the data set on Mus musculus [2] (short-term, duration: 14 days, oral, gavage, M, CD1) was 72 mg/kg-day; in the data set with Rattus norvegicus [4] (subchronic, duration: 13 weeks, gavage, M/F, Fischer 344, hepatic) it was 25 mg/kg-day. For the same molecule, the lowest-observed-adverse-effect level (LOAEL) worked out at 100 mg/kg-day with Rattus norvegicus [4] (chronic, duration: 103 weeks, gavage, M/F, Fischer 344, hepatic) and 50 mg/kg-day in the data set on Rattus norvegicus [1] (setting [10]). The NOEL in the data set with Rattus norvegicus [1] (setting [10]) was 25 mg/kg-day and 17.9 mg/kg-day.
Turning to `[O-][Cl+][O-]` [Chlorite], the no-observed-adverse-effect level (NOAEL) in the data set with Rattus norvegicus [4] (developmental, duration: 16 weeks, drinking water, M/F, Sprague-Dawley, developmental) turned out to be 2.9 mg/kg-day. In the data set with Rattus norvegicus [1] (setting [11]), this molecule had an LOAEL of 6 mg/kg-day and a no-observed-adverse-effect level (NOAEL) of 3 mg/kg-day.
In the data set on Rattus norvegicus [1] (setting [12]), `COc1nc(C)nc(NC(=O)NS(=O)(=O)c2ccccc2Cl)n1` [Chlorsulfuron] registered an LEL of 25 mg/kg-day and an NOEL of 5 mg/kg-day.
In the data set on Rattus norvegicus [1] (setting [13]), `C1CCCCC1` [Cyclohexane] registered an LOAEL of 24100 mg/m3 and a no observed adverse effect level (NOAEL) of 6890 mg/m3.
Molecule `CCOP(=O)(OCC)SCCSCC.CCOP(=S)(OCC)OCCSCC` [Demeton] showed an LEL in the data set on Rattus norvegicus [1] (chronic, duration: 2 years, oral, diet, cholinesterase inhibition, optic nerve degeneration) of 0.04 mg/kg-day.
Consider `CC(C)C(Nc1ccc(C(F)(F)F)cc1Cl)C(=O)OC(C#N)c1cccc(Oc2ccccc2)c1` (centres undefined) [Fluvalinate], for which, in the data set with Rattus norvegicus [1] (setting [14]), the LEL came out at 2.5 mg/kg-day and the NOEL turned out to be 1 mg/kg-day.
As for `COC(=O)C(C)Oc1ccc(Oc2ncc(C(F)(F)F)cc2Cl)cc1` (centres undefined) [Haloxyfop-methyl], in the data set on Rattus norvegicus [1] (setting [15]), the LEL is 0.05 mg/kg-day and the NOEL is 0.005 mg/kg-day.
In the data set on Mus musculus [2] (ICR), `NN` [Hydrazine] yielded an LOAEL of 0.262 mg/m3.
Take `O=C(O)C(F)(F)C(F)(F)C(F)(F)C(F)(F)C(F)(F)C(F)(F)C(F)(F)C(F)(F)C(F)(F)C(F)(F)F` [Perfluoroundecanoic acid]: the LOAEL in the data set with Mus musculus [5] stood at 0.042 mg/kg-day; in the data set with Rattus norvegicus [6] (setting [16]), 0.3 mg/kg-day; in the data set on Rattus norvegicus [6] (setting [17]) it was 0.3 mg/kg-day; in the data set on Rattus norvegicus [6] (setting [18]), 0.3 mg/kg-day; with Rattus norvegicus [6] (reproduction developmental, F, generation: P0, P0: Cardiovascular: Heart: Heart Histopathology + P0: Cardiovascular: Heart: Heart Weight, Absolute + P0: Cardiovascular: Heart: Heart …), 0.3 mg/kg-day; in the data set with Rattus norvegicus [6] (setting [23]), 0.3 mg/kg-day. For the same molecule, the LOAEL stood at 1 mg/kg-day in the data set with Rattus norvegicus [6] (setting [24]); 0.3 mg/kg-day in the data set with Rattus norvegicus [6] (reproduction developmental, M, generation: P0, P0: Cardiovascular: Heart: Heart Histopathology + P0: Cardiovascular: Heart: Heart Weight, Absolute + P0: Cardiovascular: Heart: Heart …); 1 mg/kg-day with Rattus norvegicus [6] (setting [25]); 0.3 mg/kg-day with Rattus norvegicus [6] (setting [26]); 1 mg/kg-day in the data set on Rattus norvegicus [4] (setting [27]); 1 mg/kg-day in the data set on Rattus norvegicus [4] (setting [28]). The no-observed-adverse-effect level (NOAEL) was 0.004 mg/kg-day in the data set on Mus musculus [5]; 0.1 mg/kg-day in the data set with Rattus norvegicus [6] (setting [16]); 0.1 mg/kg-day in the data set on Rattus norvegicus [6] (setting [17]); 0.1 mg/kg-day in the data set on Rattus norvegicus [6] (setting [18]); 0.1 mg/kg-day with Rattus norvegicus [6] (setting [23]); 0.3 mg/kg-day in the data set with Rattus norvegicus [6] (setting [24]). Further, the NOAEL came out at 0.3 mg/kg-day in the data set on Rattus norvegicus [6] (setting [25]); 0.1 mg/kg-day in the data set on Rattus norvegicus [6] (setting [26]); 0.3 mg/kg-day with Rattus norvegicus [4] (setting [27]); 0.3 mg/kg-day in the data set with Rattus norvegicus [4] (setting [28]); 1 mg/kg-day with Rattus norvegicus [4] (subchronic, duration: 46 days, gavage, M/F, Hepatic: Increased absolute and relative liver weight and centrilobular hypertrophy at 1.0 mg/kg/day). Also, the NEL with Rattus norvegicus [6] (reproduction developmental, duration: 42 days, M, generation: P0, P0: Adrenal: Adrenal Gland Histopathology + P0: Adrenal: Adrenal Gland Weight, Absolute + P0: Adrenal: Adrenal Gland Weight, Relative + P0: …) worked out at 1 mg/kg-day; in the data set with Rattus norvegicus [6] (reproduction developmental, duration: 42 days, M, generation: P0, P0: Blood: Activated Partial Thromboplastin Time (APTT) + P0: Blood: Calcium (CA), Blood + P0: Blood: Fibrinogen + P0: Blood: Mean …), 0.3 mg/kg-day; in the data set with Rattus norvegicus [6] (setting [19]), 0.1 mg/kg-day; in the data set with Rattus norvegicus [6] (setting [20]), 0.3 mg/kg-day; with Rattus norvegicus [6] (reproduction developmental, duration: 46 days, F, generation: P0, P0: Adrenal: Adrenal Gland Histopathology + P0: Adrenal: Adrenal Gland Weight, Absolute + P0: Adrenal: Adrenal Gland Weight, Relative + P0: …), 1 mg/kg-day; in the data set with Rattus norvegicus [6] (reproduction developmental, duration: 46 days, F, generation: P0, P0: Blood: Fibrinogen + P0: Blood: Mean Corpuscular Hemoglobin (MCH) + P0: Blood: Mean Corpuscular Volume (MCV) + P0: Kidney: Blood Urea …) it was 0.3 mg/kg-day. The NEL amounted to 0.1 mg/kg-day with Rattus norvegicus [6] (setting [21]); 1 mg/kg-day in the data set on Rattus norvegicus [6] (reproduction developmental, duration: 46 days, M/F, generation: F1, F1: Whole Body: Live Birth Index + F1: Whole Body: Live pups (PND 4) + F1: Whole Body: Live Pups Born + F1: Whole Body: Male Pups per Pups …); 0.3 mg/kg-day in the data set with Rattus norvegicus [6] (setting [22]). The LEL in the data set with Rattus norvegicus [6] (reproduction developmental, duration: 42 days, M, generation: P0, P0: Adrenal: Adrenal Gland Weight, Absolute, Recovery + P0: Blood: Activated Partial Thromboplastin Time (APTT) + P0: Blood: Calcium (CA), …) came to 1 mg/kg-day; in the data set on Rattus norvegicus [6] (setting [19]), 0.3 mg/kg-day; with Rattus norvegicus [6] (reproduction developmental, duration: 42 days, M, generation: P0, P0: Blood: Platelets (PLT)), 0.1 mg/kg-day; in the data set with Rattus norvegicus [6] (setting [20]), 1 mg/kg-day; in the data set with Rattus norvegicus [6] (reproduction developmental, duration: 46 days, F, generation: P0, P0: Adrenal: Adrenal Gland Weight, Absolute, Recovery + P0: Blood: Fibrinogen + P0: Blood: Mean Corpuscular Hemoglobin (MCH) + P0: Blood: …) it was 1 mg/kg-day; in the data set with Rattus norvegicus [6] (reproduction developmental, duration: 46 days, F, generation: P0, P0: Blood: Total Protein (TP), Blood + P0: Thymus: Thymus Histopathology), 0.1 mg/kg-day. Also, the LEL in the data set on Rattus norvegicus [6] (setting [21]) amounted to 0.3 mg/kg-day; in the data set on Rattus norvegicus [6] (setting [22]), 1 mg/kg-day. The NOEL with Rattus norvegicus [3] (subchronic, gavage, M, Sprague-Dawley, Body Weight Changes: Body weight gain decrease + Hematology: Fibrinogen decrease + Blood Chemistry: BUN increase, ALP increase, TP decrease…) worked out at 0.1 mg/kg-day.
In the data set on Rattus norvegicus [1] (setting [29]), `C#CCO` [Propargyl alcohol] had an LOAEL of 15 mg/kg-day and an NOAEL of 5 mg/kg-day.
